Test results reported in patent publication US9795140B2, “Molecules having pesticidal utility, and intermediates, compositions, and processes, related thereto” (priority 2015, dated 2017).
Like-named read-outs stand apart in the source and are kept apart here.

Legend:
Type in all cases: in vivo
[1] = system: Cabbage Looper (Trichoplusia ni, TRIPNI); test: Bioassay on Cabbage Looper (CL), 128-well diet tray assay; conditions: 168 h, read-out: CL % Control (or Mortality) rating
In short: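 Percent larval mortality, averaged across eight replicate wells, was scored after 5–7 days at 25 °C with a 14:10 photoperiod. Each well held 1 mL diet surface-treated at 50 μg/cm^2 with test molecule from a 90:10 acetone-water solution, then dried. Wells were infested with one to five second-instar cabbage loopers.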

[2] = system: Yellow Fever Mosquito (Aedes aegypti, AEDSAE); test: Bioassay on Yellow Fever Mosquito (YFM) larvae, 96-well plate; conditions: about 1 day-old larvae, room temperature, 3 days, scored on mortality
In short: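 Each well was scored for mortality after 3 days at room temperature under a non-evaporative lid. Test molecules came from DMSO masters (4000 ppm stock) diluted with water/acetone 90:10 and dispensed into six replicate plates, which were then infested with roughly 1-day-old larvae in liver-powder water.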

[3] = system: Beet Armyworm (Spodoptera exigua, LAPHEG); test: Bioassay on Beet Armyworm (BAW), 128-well diet tray assay; conditions: 168 h, read-out: BAW % Control (or Mortality) rating
In short: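 Test molecule dissolved in acetone-water 90:10 is applied at 50 μg/cm^2 onto artificial diet and allowed to dry. Second instar larvae, one to five per well, are then added, and trays are vented and kept at 25° C. for five to seven days before mortality is scored.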

[4] = 50 μg/cm^2 on artificial diet, second instar larvae, 25° C., five to seven days, average of eight wells

For `O=C(NCC(F)(F)F)c1cc(NC(=O)[C@H]2[C@H](c3ccc(F)c(F)c3)C2(Cl)Cl)ccc1Cl` (relative stereo) [F108, 2-chloro-5-(trans-2,2-dichloro-3-(3,4-difluorophenyl)cyclopropane-1-carboxamido)-N-(2,2,2-trifluoroethyl)benzamide], the mortality at 50 µg/cm2 [1] was 50 to 100%, the “YFM % Control (or Mortality) rating” value [2] was “A (80-100)” and the mortality at 50 µg/cm2 [3] was 50 to 100%.
With `O=C(NCC(F)(F)F)c1cc(NC(=O)[C@H]2[C@H](c3ccc(Cl)c(Br)c3)C2(Cl)Cl)ccc1Cl` (relative stereo) [F109, 5-(trans-3-(3-Bromo-4-chlorophenyl)-2,2-dichlorocyclopropane-1-carboxamido)-2-chloro-N-(2,2,2-trifluoroethyl)benzamide] the mortality at 50 µg/cm2 [1, 4] was 50 to 100%, the “YFM % Control (or Mortality) rating” value [2] was “A (80-100)” and the mortality at 50 µg/cm2 [3, 4] was 50 to 100%.
`O=C(NCC(F)(F)F)c1cc(NC(=O)[C@H]2[C@H](c3ccc(Br)c(Br)c3)C2(Cl)Cl)ccc1Cl` (relative stereo) [F111, 2-Chloro-5-(trans-2,2-dichloro-3-(3,4-dibromophenyl)cyclopropane-1-carboxamido)-N-(2,2,2-trifluoroethyl)benzamide] was tested, and the mortality at 50 µg/cm2 [1, 4] was 50 to 100%, the “YFM % Control (or Mortality) rating” value [2] was “A (80-100)” and the mortality at 50 µg/cm2 [3, 4] was 50 to 100%.
In the case of `O=C(NCC(F)(F)F)c1cc(NC(=O)[C@H]2[C@H](c3ccc(C(F)(F)F)c(F)c3)C2(Cl)Cl)ccc1Cl` (relative stereo) [F112, 2-Chloro-5-(trans-2,2-dichloro-3-(3-fluoro-4-(trifluoromethyl)phenyl)cyclopropane-1-carboxamido)-N-(2,2,2-trifluoroethyl)benzamide], the mortality at 50 µg/cm2 [1, 4] is reported as 50 to 100%, the “YFM % Control (or Mortality) rating” value [2] is reported as “A (80-100)” and the mortality at 50 µg/cm2 [3, 4] is reported as 50 to 100%.
In the case of `O=C(NCC(F)(F)F)c1cc(NC(=O)[C@H]2[C@H](c3ccc(Br)c(F)c3)C2(Cl)Cl)ccc1Cl` (relative stereo) [F113, 5-(trans-3-(4-Bromo-3-fluorophenyl)-2,2-dichlorocyclopropane-1-carboxamido)-2-chloro-N-(2,2,2-trifluoroethyl)benzamide], the mortality at 50 µg/cm2 [1, 4] is reported as 50 to 100%, the “YFM % Control (or Mortality) rating” value [2] is reported as “A (80-100)” and the mortality at 50 µg/cm2 [3, 4] is reported as 50 to 100%.
In the case of `O=C(NCC(F)(F)F)c1cc(NC(=O)[C@H]2[C@H](c3ccc(C(F)(F)F)c(Br)c3)C2(Cl)Cl)ccc1Cl` (relative stereo) [F114, 5-(trans-3-(3-Bromo-4-(trifluoromethyl)phenyl)-2,2-dichlorocyclopropane-1-carboxamido)-2-chloro-N-(2,2,2-trifluoroethyl)benzamide], the mortality at 50 µg/cm2 [1, 4] is reported as 50 to 100%, the “YFM % Control (or Mortality) rating” value [2] is reported as “A (80-100)” and the mortality at 50 µg/cm2 [3, 4] is reported as 50 to 100%.
For `O=C(NCC(F)(F)F)c1cc(NC(=O)[C@H]2[C@H](c3ccc(Br)c(C(F)(F)F)c3)C2(Cl)Cl)ccc1Cl` (relative stereo) [F115, 5-(trans-3-(4-Bromo-3-(trifluoromethyl)phenyl)-2,2-dichlorocyclopropane-1-carboxamido)-2-chloro-N-(2,2,2-trifluoroethyl)benzamide], the mortality at 50 µg/cm2 [1, 4] was 50 to 100%, the “YFM % Control (or Mortality) rating” value [2] was “A (80-100)” and the mortality at 50 µg/cm2 [3, 4] was 50 to 100%.
For `O=C(NCC(F)(F)F)c1cc(NC(=O)[C@H]2[C@H](c3ccc(C(F)(F)F)c(Cl)c3)C2(Cl)Cl)ccc1Cl` (relative stereo) [F116, 2-Chloro-5-(trans-2,2-dichloro-3-(3-chloro-4-(trifluoromethyl)phenyl)cyclopropane-1-carboxamido)-N-(2,2,2-trifluoroethyl)benzamide], the mortality at 50 µg/cm2 [1, 4] was 50 to 100%, the “YFM % Control (or Mortality) rating” value [2] was “A (80-100)” and the mortality at 50 µg/cm2 [3, 4] was 50 to 100%.
In the case of `O=C(NCC(F)(F)F)c1cc(NC(=O)[C@H]2[C@H](c3ccc(Cl)c(C(F)(F)F)c3)C2(Cl)Cl)ccc1Cl` (relative stereo) [F117, 2-Chloro-5-(trans-2,2-dichloro-3-(4-chloro-3-(trifluoromethyl)phenyl)cyclopropane-1-carboxamido)-N-(2,2,2-trifluoroethyl)benzamide], the mortality at 50 µg/cm2 [1, 4] is reported as 50 to 100%, the “YFM % Control (or Mortality) rating” value [2] is reported as “A (80-100)” and the mortality at 50 µg/cm2 [3, 4] is reported as 50 to 100%.
`O=C(NCC(F)(F)F)c1cc(NC(=O)[C@H]2[C@H](c3ccc(F)c(Br)c3)C2(Cl)Cl)ccc1Cl` (relative stereo) [F118, 5-(trans-3-(3-Bromo-4-fluorophenyl)-2,2-dichlorocyclopropane-1-carboxamido)-2-chloro-N-(2,2,2-trifluoroethyl)benzamide] was tested, and the mortality at 50 µg/cm2 [1, 4] was 50 to 100%, the “YFM % Control (or Mortality) rating” value [2] was “A (80-100)” and the mortality at 50 µg/cm2 [3, 4] was 50 to 100%.
`O=C(NCC(F)(F)F)c1cc(NC(=O)[C@H]2[C@H](c3ccc(F)c(C(F)(F)F)c3)C2(Cl)Cl)ccc1Cl` (relative stereo) [F119, 2-Chloro-5-(trans-2,2-dichloro-3-(4-fluoro-3-(trifluoromethyl)phenyl)cyclopropane-1-carboxamido)-N-(2,2,2-trifluoroethyl)benzamide] was tested, and the mortality at 50 µg/cm2 [1, 4] was 50 to 100%, the “YFM % Control (or Mortality) rating” value [2] was “A (80-100)” and the mortality at 50 µg/cm2 [3, 4] was 50 to 100%.
`O=C(NCC(F)(F)F)c1cc(NC(=O)[C@H]2[C@H](c3ccc(Cl)c(F)c3)C2(Cl)Cl)ccc1Cl` (relative stereo) [F120, 2-Chloro-5-(trans-2,2-dichloro-3-(4-chloro-3-fluorophenyl)cyclopropane-1-carboxamido)-N-(2,2,2-trifluoroethyl)benzamide] was tested, and the mortality at 50 µg/cm2 [1, 4] was 50 to 100%, the “YFM % Control (or Mortality) rating” value [2] was “A (80-100)” and the mortality at 50 µg/cm2 [3, 4] was 50 to 100%.
In the case of `O=C(NCC(F)(F)F)c1cc(NC(=O)[C@H]2[C@H](c3cc(F)cc(F)c3)C2(Cl)Cl)ccc1Cl` (relative stereo) [F121, 2-Chloro-5-(trans-2,2-dichloro-3-(3,5-difluorophenyl)cyclopropane-1-carboxamido)-N-(2,2,2-trifluoroethyl)benzamide], the mortality at 50 µg/cm2 [1, 4] is reported as 50 to 100%, the “YFM % Control (or Mortality) rating” value [2] is reported as “A (80-100)” and the mortality at 50 µg/cm2 [3, 4] is reported as 50 to 100%.
In the case of `O=C(NCC(F)(F)F)c1cc(NC(=O)[C@H]2[C@H](c3cc(F)cc(C(F)(F)F)c3)C2(Cl)Cl)ccc1Cl` (relative stereo) [F122, 2-Chloro-5-(trans-2,2-dichloro-3-(3-fluoro-5-(trifluoromethyl)phenyl)cyclopropane-1-carboxamido)-N-(2,2,2-trifluoroethyl)benzamide], the mortality at 50 µg/cm2 [1, 4] is reported as 50 to 100%, the “YFM % Control (or Mortality) rating” value [2] is reported as “A (80-100)” and the mortality at 50 µg/cm2 [3, 4] is reported as 50 to 100%.
In the case of `O=C(NCC(F)(F)F)c1cc(NC(=O)[C@H]2[C@H](c3cc(F)cc(Br)c3)C2(Cl)Cl)ccc1Cl` (relative stereo) [F123, 5-(trans-3-(3-Bromo-5-fluorophenyl)-2,2-dichlorocyclopropane-1-carboxamido)-2-chloro-N-(2,2,2-trifluoroethyl)benzamide], the mortality at 50 µg/cm2 [1, 4] is reported as 50 to 100%, the “YFM % Control (or Mortality) rating” value [2] is reported as “A (80-100)” and the mortality at 50 µg/cm2 [3, 4] is reported as 50 to 100%.
In the case of `O=C(NCC(F)(F)F)c1cc(NC(=O)[C@H]2[C@H](c3cc(Br)cc(C(F)(F)F)c3)C2(Cl)Cl)ccc1Cl` (relative stereo) [F124, 5-(trans-3-(3-Bromo-5-(trifluoromethyl)phenyl)-2,2-dichlorocyclopropane-1-carboxamido)-2-chloro-N-(2,2,2-trifluoroethyl)benzamide], the mortality at 50 µg/cm2 [1, 4] is reported as 50 to 100%, the “YFM % Control (or Mortality) rating” value [2] is reported as “A (80-100)” and the mortality at 50 µg/cm2 [3, 4] is reported as 50 to 100%.
